The source of these data is PMC4434909, “In vitro properties of designed antimicrobial peptides that exhibit potent antipneumococcal activity and produces synergism in combination with penicillin” (Scientific Reports, 2015).

One series concerns PRSP, PISP, and PSSP. The format is cell-based, Streptococcus pneumoniae. As to conditions: 30 min post treatment, 2× MIC, 5 × 10^6 CFU/ml in CAMHB, plate count, relative to untreated control. On the procedure: This assay was performed to evaluate the killing kinetics of peptides. One PRSP, PISP, and PSSP isolate were each grown and prepared to 5 × 10^6 CFU/ml. Each isolate in CAMHB was challenged with peptides at two times the respective MIC values. At the indicated time intervals (0, 30, 60, 120, 150, 180, 210, and 240 min; “0” indicate pretreatment), 10 μl of suspension was removed and immediately serially diluted in cold phosphate-buffered saline to arrest further reaction before spread-plated on MHA to obtain viable colony counts. The percentage cell recovered was calculated by dividing the surviving CFU of the treated cells over the surviving CFU of the untreated control cells at the respective time points. Results were pooled from three independent experiments and expressed as mean ± standard deviation (SD).

Another series deals with A549 cell line. Briefly: Cytotoxicity against human cell lines (CellTiter 96 AQueous). The format is cell-based. The protocol: (§1) Both the NL20 human lung bronchial normal epithelial cell line and the A549 human lung alveolar adenocarcinoma epithelial cell line were used for cell cytotoxicity tests. Besides investigating the cytotoxicity of peptides, differences in cell viability between the two cell lines can be used to evaluate the cell line selectivity and to assess potential anticancer potential of the peptides. NL20 cell line was grown in Ham's F12 medium and A549 cell line was grown in Roswell Park Memorial Institute medium. Both media were supplemented with fetal bovine serum to 10% (v/v) as growth medium or 2% (v/v) as maintenance medium in cell cytotoxicity testing. The assay was performed as described by Lee et al.[26]. NL20 cells was seeded overnight at 3 × 10^4 cells/well in 96-well cell culture-treated flat bottom microtiter plate and treated with serial dilutions of peptide at a final concentration of 1.95–250 μg/ml. PEN was tested from 0.03–4 μg/ml, the same range used to classify the susceptibility of pneumococcal isolates in this study. Test using A549 cells followed the same procedures with 1 × 10^4 cells/well. Plates were incubated at 37°C under 5% CO2 for 24, 48, and 72 hrs. Cell viability was detected by using CellTiter 96® AQueous Non-Radioactive Cell Proliferation assay (Promega, USA) and the colorimetric changes were read with Glomax multidetection system (Promega, USA) at OD 490 nm. Results were pooled from three independent experiments and expressed as mean ± SD. […] Imax was the percentage of cell viable treated with peptides/PEN at the maximum concentration as defined throughout this study (all peptides 250 μg/ml, PEN 4 μg/ml).

A further series has as its system NL20 cell line. Described as above. The series is classed as cell-based. On the procedure: as §1
Another series concerns human erythrocytes. Briefly: Hemolytic activity. The format is cell-based. The protocol: Hemolytic assay was performed as described. Freshly drawn human erythrocytes were rinsed three times with PBS and resuspended in PBS to 4% (v/v). One hundred microliters of the suspension was added to 96-well microtiter plate containing equal volume of peptides to give final concentrations of peptides encompassing the range of 1.96–250 μg/ml. PBS and 0.1% (v/v) Triton-X 100 were used as 0% and 100% hemolytic control respectively. Plates were incubated at 37°C for 1 hr. Subsequently, the plate was centrifuged and the supernatant was transferred to a new plate. The release of hemoglobin in the supernatant was monitored at absorbance of 450 nm using Glomax Multidetection system (Promega, USA). Results were pooled from three independent experiments and expressed as mean ± SD. HC10 and HC50 were defined as the peptide concentrations causing 10% and 50% hemolysis on human erythrocytes, respectively. Hmax was the percentage hemolysis observed at the maximum concentration as defined throughout this study (all peptides 250 μg/ml, PEN 4 μg/ml).

Regarding penicillin [reference compound], in the series on PRSP, PISP, and PSSP, the “CFU recovered (viability), all three groups of pneumococci” value is 60–78%. Also, in the series on A549 cell line, the “IC50, A549 cell line, 24 hrs” value is over 4 µg/mL; the “IC50, A549 cell line, 48 hrs” value is over 4 µg/mL; the “IC50, A549 cell line, 72 hrs” value was over 4 µg/mL. In the series on NL20 cell line, the “IC50, NL20 cell line, 24 hrs” value was over 4 µg/mL; the “IC50, NL20 cell line, 48 hrs” value is over 4 µg/mL; the “IC50, NL20 cell line, 72 hrs” value is over 4 µg/mL; the “Imax, NL20 cell line, 24 hrs” value stood at 105.2 ± 0.2%. In the series with NL20 cell line, the “Imax, NL20 cell line, 48 hrs” value is given as 106.1 ± 6.2% and the “Imax, NL20 cell line, 72 hrs” value was found to be 88.3 ± 0.4%. For the same substance, in the series with human erythrocytes, the HC10 was over 4 µg/mL and the HC50 is over 4 µg/mL.
